SMILES strings stand for the structures. Entries after “also recorded” stand apart in the source; their conditions may differ.

This note sets out measurements from patent US9210928B2, “Plant development control composition” (Syngenta Crop Protection, LLC, priority 2008, dated 2015).

The experiment concerns the target T1, MmBCO2 (Mus musculus, UniProt Q99NF1).
T1 construct: All genes were full length except AtCCD7; expressed in transfected cells; host or cells: E. coli BL21(DE3) harbouring pAC-BETA
T1 sequence (Q99NF1 1-532): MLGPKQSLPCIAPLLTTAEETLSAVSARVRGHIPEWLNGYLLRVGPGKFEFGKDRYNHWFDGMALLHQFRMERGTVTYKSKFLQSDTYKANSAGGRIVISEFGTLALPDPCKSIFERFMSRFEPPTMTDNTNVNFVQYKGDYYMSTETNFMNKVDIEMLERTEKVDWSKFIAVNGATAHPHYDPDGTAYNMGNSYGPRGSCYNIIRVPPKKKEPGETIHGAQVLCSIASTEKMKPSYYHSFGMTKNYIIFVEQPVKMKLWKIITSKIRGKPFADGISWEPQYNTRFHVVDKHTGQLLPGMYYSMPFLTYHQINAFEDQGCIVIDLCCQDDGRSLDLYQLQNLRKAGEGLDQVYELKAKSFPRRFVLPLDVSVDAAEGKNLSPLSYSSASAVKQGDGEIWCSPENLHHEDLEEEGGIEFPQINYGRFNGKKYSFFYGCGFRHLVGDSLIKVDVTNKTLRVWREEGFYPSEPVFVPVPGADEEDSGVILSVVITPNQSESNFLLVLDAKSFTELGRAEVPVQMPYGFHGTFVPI
As to the kind of experiment: In vivo enzyme assay in β-carotene-producing E. coli expressing MmBCO2. The note with it: 100 μM inhibitor, 16 hours; FIG. 4. It counts as cell-based. An excerpt: In vivo enzyme assays in E. coli—The genes of interest (supplemental Table S1) were cloned into the vector pET30c (Novagen) fused directly to the initial ATG codon with no tag, or into pGEX-4T such that the gene was fused to an N-terminal GST tag. All genes were full length except AtCCD7, which had the chloroplast signal sequence removed (supplemental methods). […] Therefore, this construct was used in subsequent assays. The plasmids were transferred to the E. coli expression strain BL21(DE3), harbouring pAC-BETA (38), and therefore producing β-carotene.
For each inhibitor assay, 2.5 ml LB media with the appropriate antibiotics (25 μg ml^−1 chloramphenicol and 50 μg ml^−1 kanamycin or 100 μg ml^−1 ampicillin) and 2.5 μM IPTG, was prepared. […] The supernatant was removed and the O.D.453-O.D.550 was measured. The amount of β-carotene was calculated using a standard curve generated from a dilution series of β-carotene (Sigma) in ethanol with 0.2% Triton X-100; the absolute levels of β-carotene are shown in FIG. 8. The relative inhibition was calculated by the equation: (Ci−Cc)/(C1−Cc)×100, where Ci is the carotenoid level with inhibitor and CCD present, Cc is the level with CCD but without the inhibitor and C1 is the level in a strain where lacZ is expressed instead of the CCD, and no inhibitor is present. […]

As for `COc1ccc(C(=O)N(O)Cc2ccccc2)cc1` [Compound F1, N-benzyl-4-methoxybenzoyl hydroxamic acid], the “relative inhibition of MmBCO2 in E. coli (in words)” value is “most effective compounds at inhibiting MmBCO2; also recorded: high inhibitory activity”.
`COc1ccc(C(=O)N(O)Cc2ccc(F)cc2)cc1` [Compound F2, N-(4-fluorobenzyl)-4-methoxybenzoyl hydroxamic acid]: the “relative inhibition of MmBCO2 in E. coli (in words)” value was “most effective compounds at inhibiting MmBCO2; also recorded: high inhibitory activity”.
